Data set [1] deals with UGT (curcumin glucuronidation, mouse liver microsomes). Nature of the data set: Inhibition of curcumin glucuronidation in mouse liver microsomes. Format: biochemical. The following applies: inhibitor up to 10 μM, curcumin 1 μM.
The nature of data set [2]: Equilibrium solubility in SMEDDS formulation. Format: physicochemical. The following applies: in SMEDDS (Cremophor EL, Carbitol, Captex 355); room temperature overnight.
Data set [3] in a line: Oral pharmacokinetic studies in mice. Format: in vivo, mouse. The following applies: silibinin 100 mg/kg with curcumin 100 mg/kg in SMEDDS.
For data set [4] the following is noted: cited from earlier work.
For data set [5] the following is noted: cited from earlier work. The source holds these as a separate data set.

As to `O=C(/C=C/C=C/c1ccc2c(c1)OCO2)N1CCCCC1` [Piperine, piperine], the “effect on curcumin glucuronidation / UGT activity (in words)” value in data set [1] is reported as “no inhibitory effect”. Moreover, in data set [2], the Solubility is given as 45.2 mg/g.

Take `O=C(O[C@@H]1Cc2c(O)cc(O)cc2O[C@@H]1c1cc(O)c(O)c(O)c1)c1cc(O)c(O)c(O)c1` [EGCG, epigallocatechin gallate]: the “effect on curcumin glucuronidation / UGT activity (in words)” value in data set [1] is “slightly increased UGT activity”.

Take `COc1cc(C2Oc3cc([C@H]4Oc5cc(O)cc(O)c5C(=O)[C@@H]4O)ccc3OC2CO)ccc1O` (stereo partly shown) [Silibinin, silibinin]: in data set [3], the “time of peak silibinin plasma concentration” value is 30 min. This compound had a Solubility in data set [2] of 32.8 mg/g.

In the case of `O=C(O)c1ccccc1O` [salicylic acid], in data set [1], the “effect on curcumin glucuronidation / UGT activity (in words)” value is on record as “slightly increased UGT activity”.

`O=c1c(O)c(-c2ccc(O)c(O)c2)oc2cc(O)cc(O)c12` [Quercetin, quercetin] displayed a Solubility in data set [2] of 34.4 mg/g.

For `COc1cc(/C=C/C(=O)CC(=O)/C=C/c2ccc(O)c(OC)c2)ccc1O` [Curcumin], the solubility in water in data set [4] is reported as ~ 2 ng/mL. Besides, in data set [5], the bioavailability was under 2%. In data set [2], the Solubility is reported as 51.5 mg/g.

A word on the bioavailability: it is dose-corrected exposure relative to a reference, in per cent.

These data come from publication PMC4240011 (Drug delivery and translational research, 2014).
